Experimental data reported in paper PMC5435703 (Scientific Reports, 2017).
In brackets after ≈: the same amount, converted by molar mass. Read-outs that look alike come from different tables or passages of the source. Marks after values point to notes of the source that are not given here.

Assays:
MRSA BAA-1707 [1] = assay: MIC assay with metal(II) cation co-treatment; format: cell-based, Staphylococcus aureus; conditions: Staphylococcus aureus
MRSA-1 = assay: MIC broth microdilution assay; format: cell-based, Staphylococcus aureus; conditions: Staphylococcus aureus, MRSA; Table 1; read-out: MIC MRSA-1
VRE 700221 [2] = assay: MIC broth microdilution assay; format: cell-based, Enterococcus faecium
MRSA BAA-1707 [3] = assay: MIC broth microdilution assay; format: cell-based, Staphylococcus aureus
MRSA-2 = assay: MIC broth microdilution assay; format: cell-based, Staphylococcus aureus; conditions: Staphylococcus aureus, MRSA; Table 1; read-out: MIC MRSA-2
MRSE 35984 [4] = assay: MIC broth microdilution assay; format: cell-based, Staphylococcus epidermidis; conditions: for MIC: Staphylococcus epidermidis, MRSE
S. epi 12228 = assay: MIC broth microdilution assay; format: cell-based, Staphylococcus epidermidis; conditions: Staphylococcus epidermidis, 12228; Table 1; read-out: MIC S. epi 12228
[5] = Hemolysis assay with red blood cells; conditions: human, pH 7.2
MRSA BAA-1707 [6] = assay: Calgary Biofilm Device (CBD) MBC/MBEC assay; format: cell-based, Staphylococcus aureus; conditions: Staphylococcus aureus, 24 h, CBD, planktonic killing, 24 hours treatment; read-out: MRSA BAA-1707 MBC
MRSA BAA-44 = assay: MIC broth microdilution assay; format: cell-based; conditions: Staphylococcus aureus; Table 1; read-out: MIC MRSA BAA-44
MRSE 35984 [7] = assay: Calgary Biofilm Device (CBD) MBC/MBEC assay; format: cell-based, Staphylococcus epidermidis; conditions: Staphylococcus epidermidis, MRSE; CBD, planktonic killing; read-out: MRSE 35984 MBC
[8] = LDH release assay for HeLa cytotoxicity; format: cell-based; conditions: human, HeLa cells; LDH release, 24 hours; tested at 25, 50 and 100 µM; read-out: HeLa Cytotox. IC50
VRE 700221 [9] = assay: Calgary Biofilm Device (CBD) MBC/MBEC assay; format: cell-based, Enterococcus faecium; conditions: Enterococcus, VRE; CBD, planktonic killing; read-out: VRE 700221 MBC
MtB H37Ra = assay: MIC assay for Mycobacterium tuberculosis; format: cell-based; conditions: 168 h, seven days
[10] = Table 2, MRSA BAA-1707, no metal(II) cation added, read-out: MIC
[11] = copper(II) at 200 µM co-treatment, read-out: MIC w/Cu2+
[12] = iron(II) at 200 µM co-treatment, read-out: MIC w/Fe2+
[13] = magnesium(II) at 200 µM co-treatment, read-out: MIC w/Mg2+
[14] = zinc(II) at 200 µM co-treatment, read-out: MIC w/Zn2+
[15] = Enterococcus, VRE, Table 1, read-out: MIC VRE 700221
[16] = Staphylococcus aureus, Table 1, three independent experiments, read-out: MIC MRSA BAA-1707
[17] = Staphylococcus aureus, single plate shown as picture, read-out: MIC (µM), MIC Assay against MRSA BAA-1707
[18] = Table 1, read-out: MIC MRSE 35984

Structure (SMILES): Oc1cccc2nc3ccccc3nc12 [1-OHP, 1-hydroxyphenazine, reference compound]
- MIC (MRSA BAA-1707 [1]; [10]): 250 µM
- MIC (MRSA BAA-1707 [1]; [11]): 75 µM
- MIC (MRSA BAA-1707 [1]; [12]): 250 µM
- MIC (MRSA BAA-1707 [1]; [13]): 250 µM
- MIC (MRSA BAA-1707 [1]; [14]): > 500 µM

Structure (SMILES): Oc1cccc2cccnc12 [8-OHQ, 8-hydroxyquinoline, reference compound]
- MIC (MRSA BAA-1707 [1]): 9.38 µM
- MIC (MRSA BAA-1707 [1]; read-out: MIC w/Cu2+): 4.69 µM
- MIC (MRSA BAA-1707 [1]; read-out: MIC w/Fe2+): 12.5 µM
- MIC (MRSA BAA-1707 [1]; read-out: MIC w/Mg2+): 6.25 µM
- MIC (MRSA BAA-1707 [1]; read-out: MIC w/Zn2+): 12.5 µM

Structure (SMILES): C[C@H]1c2cccc(O)c2C(=O)C2=C(O)[C@]3(O)C(=O)C(C(N)=O)=C(O)[C@@H](N(C)C)[C@@H]3[C@@H](O)[C@@H]21 [Doxy., Doxycycline, reference compound]
- MIC (MRSA BAA-1707 [1]; [10]): 0.78 µM
- MIC (MRSA BAA-1707 [1]; [11]): 0.78 µM
- MIC (MRSA BAA-1707 [1]; [12]): 3.13 µM
- MIC (MRSA BAA-1707 [1]; [13]): 0.78 µM
- MIC (MRSA BAA-1707 [1]; [14]): 0.39 µM

Structure (SMILES): CCCCc1cc(Br)c(O)c2nc3ccccc3nc12 [HP 2]
- MIC (MRSA-1): 0.78 µM (≈ 0.258 µg/mL)
- MIC (VRE 700221 [2]; [15]): 0.78 µM (≈ 0.258 µg/mL)
- MIC (MRSA BAA-1707 [3]; [16]): 0.78 µM (≈ 0.258 µg/mL)
- MIC (MRSA BAA-1707 [3]; [17]): 0.78 µM (≈ 0.258 µg/mL)
- MIC (MRSA-2): 3.13 µM (≈ 1.04 µg/mL)

Structure (SMILES): Oc1c(Br)cc(Br)c2nc3ccc(Br)cc3nc12 [HP 3]
- MIC (MRSE 35984 [4]; [18]): 3.13 µM (≈ 1.35 µg/mL)
- MIC (MRSA BAA-1707 [3]; [16]): 0.2 µM (≈ 0.0866 µg/mL)
- MIC (S. epi 12228): 3.13 µM (≈ 1.35 µg/mL)

Structure (SMILES): Cc1cc(Br)c(O)c2nc3ccccc3nc12 [HP 4]
- hemolysis at 1 h, 200 µM [5]: ≤ 1%
- MBC (MRSA BAA-1707 [6]): 46.9 µM (≈ 13.6 µg/mL)
- MIC (MRSA-1): 50 µM (≈ 14.5 µg/mL)
- MIC (MRSA BAA-44): 50 µM (≈ 14.5 µg/mL)
- MIC (VRE 700221 [2]; [15]): 3.13 µM (≈ 0.905 µg/mL)
- MIC (VRE 700221 [2]; Enterococcus, VRE, Table 3, read-out: VRE 700221 MIC): 3.13 µM (≈ 0.905 µg/mL)
- MBC (MRSE 35984 [7]): 150 µM (≈ 43.4 µg/mL)
- IC50 at 24 h [8]: > 100 µM
- MIC (MRSA BAA-1707 [3]; [16]): 3.13 µM (≈ 0.905 µg/mL)
- MIC (MRSA BAA-1707 [3]; Staphylococcus aureus, Table 3, read-out: MRSA BAA-1707 MIC): 3.13 µM (≈ 0.905 µg/mL)
- MIC (MRSA BAA-1707 [3]; [17]): 3.13 µM (≈ 0.905 µg/mL)
- MIC (S. epi 12228): 3.13 µM (≈ 0.905 µg/mL)
- MIC (MRSA-2): 3.13 µM (≈ 0.905 µg/mL)

Structure (SMILES): Cc1cccc2nc3c(O)c(Br)cc(C)c3nc12 [HP 5]
- MIC (MRSA-1): 37.5 µM (≈ 11.4 µg/mL)
- MIC (VRE 700221 [2]; [15]): > 100 µM
- MIC (MRSA BAA-1707 [3]; [16]): 9.38 µM (≈ 2.84 µg/mL)
- MIC (MRSA BAA-1707 [3]; [17]): 12.5 µM (≈ 3.79 µg/mL)

Structure (SMILES): CCc1cccc2nc3c(O)c(Br)cc(C)c3nc12 [HP 6]
- MIC (MRSE 35984 [4]; [18]): 0.3 to 0.78 µM (≈ 0.0952 to 0.247 µg/mL)
- MIC MRSE 35984 (MRSE 35984 [4]; Table 1): 0.30^a µM
- MIC (MRSA-1): 0.78 µM (≈ 0.247 µg/mL)
- MIC (VRE 700221 [2]; [15]): 0.78 to 2.35 µM (≈ 0.247 to 0.745 µg/mL)
- MIC (VRE 700221 [2]; Table 1, read-out: MIC VRE 700221): 0.78 µM (≈ 0.247 µg/mL)

Structure (SMILES): Cc1ccc2nc3c(O)c(Br)cc(C)c3nc2c1C [HP 7]
- MIC (MRSA-1): 50 µM (≈ 15.9 µg/mL)

Structure (SMILES): Cc1cc(Br)c(O)c2nc3cc(C(C)(C)C)ccc3nc12 [HP 8]
- MIC (MRSE 35984 [4]; [18]): > 100 µM
- MIC (MRSE 35984 [4]; single plate shown as picture, read-out: MIC (µM), MIC Assay Against MRSE 35984): > 100 µM
- MIC (MRSA-1): > 100 µM
- MIC (VRE 700221 [2]; [15]): > 100 µM
- MIC (MRSA BAA-1707 [3]; [16]): > 100 µM
- MIC (MRSA BAA-1707 [3]; Table 1, three independent experiments, read-out: MIC MRSA BAA-1707): >100 µM

Structure (SMILES): Cc1cc(Cl)c2nc3c(C)cc(Br)c(O)c3nc2c1 [HP 9]
- MBC (VRE 700221 [9]): 12.5 µM (≈ 4.22 µg/mL)
- hemolysis at 1 h, 200 µM [5]: ≤ 1%
- MBC (MRSA BAA-1707 [6]): > 200 µM
- MIC (MRSA-1): 1.56 µM (≈ 0.527 µg/mL)
- MIC (MRSA BAA-44): 1.56 µM (≈ 0.527 µg/mL)
- MBC (MRSE 35984 [7]): 12.5 µM (≈ 4.22 µg/mL)
- IC50 at 24 h [8]: > 100 µM
- MIC (MRSA-2): 2.35 µM (≈ 0.793 µg/mL)
- MIC (MtB H37Ra): 50 µM (≈ 16.9 µg/mL)

Structure (SMILES): CCc1cc(Br)c2nc3c(C)cc(Br)c(O)c3nc2c1 [HP 10]
- MIC (MRSE 35984 [4]; [18]): 37.5 µM (≈ 14.9 µg/mL)
- MIC (MRSA-1): 50 µM (≈ 19.8 µg/mL)
- MIC (VRE 700221 [2]; [15]): 50 µM (≈ 19.8 µg/mL)
